# Assay results taken from patent US8173682B2, “Substituted pyridones as inhibitors of poly(ADP-ribose) polymerase (PARP)” (Aventis Pharmaceuticals Inc., priority 2004, dated 2012).
# Molecular target: recombinantly expressed human PARP-1 enzyme (Homo sapiens, UniProt P09874)
# Experiment: PARP enzyme assay, Method B (tritium-labeled NAD incorporation)
# Type: biochemical
# Details: Method B; 200 μM NAD, room temperature 1 hour, pH 8.0; read-out: IC50 (μM)/Method B
# Procedure, shortened: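 DNA-activated purified recombinant enzyme (2 μg/mL) incubated with test compound for 1 h at room temperature, pH 8.0, with 200 μM NAD plus tritiated NAD, DNA and histones. TCA-precipitated radiolabelled protein collected on glass-fibre filters and counted; IC50 is the concentration halving incorporation versus no-inhibitor control.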
# Sequence of recombinantly expressed human PARP-1 enzyme (P09874 whole entry): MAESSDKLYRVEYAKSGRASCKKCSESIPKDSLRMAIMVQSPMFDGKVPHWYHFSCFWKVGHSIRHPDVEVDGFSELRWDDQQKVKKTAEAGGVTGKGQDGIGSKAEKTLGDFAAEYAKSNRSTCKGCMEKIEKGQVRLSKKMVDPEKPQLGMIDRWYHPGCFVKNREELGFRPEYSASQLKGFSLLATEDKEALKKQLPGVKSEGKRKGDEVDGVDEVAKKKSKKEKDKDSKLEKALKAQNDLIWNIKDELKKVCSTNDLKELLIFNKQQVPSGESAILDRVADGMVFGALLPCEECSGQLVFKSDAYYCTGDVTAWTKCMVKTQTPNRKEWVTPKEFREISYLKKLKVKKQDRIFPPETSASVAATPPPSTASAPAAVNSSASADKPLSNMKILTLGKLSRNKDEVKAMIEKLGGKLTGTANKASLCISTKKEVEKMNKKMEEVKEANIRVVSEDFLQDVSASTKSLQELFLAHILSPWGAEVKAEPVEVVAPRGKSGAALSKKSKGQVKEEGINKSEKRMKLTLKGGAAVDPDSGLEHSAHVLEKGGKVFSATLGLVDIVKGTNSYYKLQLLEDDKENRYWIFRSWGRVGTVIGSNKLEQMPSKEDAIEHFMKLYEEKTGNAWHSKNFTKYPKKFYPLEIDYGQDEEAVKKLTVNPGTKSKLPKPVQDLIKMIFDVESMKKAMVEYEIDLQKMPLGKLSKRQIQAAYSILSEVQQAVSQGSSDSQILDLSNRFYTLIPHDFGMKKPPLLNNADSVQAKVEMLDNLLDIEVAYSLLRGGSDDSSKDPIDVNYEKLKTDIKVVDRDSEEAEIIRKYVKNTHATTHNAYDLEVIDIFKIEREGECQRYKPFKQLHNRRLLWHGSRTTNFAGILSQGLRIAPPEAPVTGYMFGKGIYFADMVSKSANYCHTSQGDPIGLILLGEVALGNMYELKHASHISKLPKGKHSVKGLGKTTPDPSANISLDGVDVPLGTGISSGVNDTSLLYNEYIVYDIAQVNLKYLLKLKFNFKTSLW
row,IC50 [µM],SMILES
1,1.34,"CCc1cc(-c2cncc(C(=O)NCCc3ccc(S(N)(=O)=O)cc3)c2)c(C)[nH]c1=O [Example 237, 5′-Ethyl-2′-methyl-6′-oxo-1′,6′-dihydro-[3,3′]bipyridinyl-5-carboxylic acid [2-(4-sulfamoyl-phenyl)-ethyl]-amide]"
2,0.35,"CCc1cc(-c2cncc(C(=O)NCCc3ccncc3)c2)c(C)[nH]c1=O [Example 238, 5′-Ethyl-2′-methyl-6′-oxo-1′,6′-dihydro-[3,3′]bipyridinyl-5-carboxylic acid (2-pyridin-4-yl-ethyl)-amide]"
3,0.94,"CCc1cc(-c2cncc(C(=O)NCCc3ccc(OC)cc3)c2)c(C)[nH]c1=O [Example 239, 5′-Ethyl-2′-methyl-6′-oxo-1′,6′-dihydro-[3,3′]bipyridinyl-5-carboxylic acid [2-(4-methoxy-phenyl)-ethyl]-amide]"
4,3.88,"CCc1cc(-c2cncc(C(=O)NCCc3cccc(OC)c3)c2)c(C)[nH]c1=O [Example 240, 5′-Ethyl-2′-methyl-6′-oxo-1′,6′-dihydro-[3,3′]bipyridinyl-5-carboxylic acid [2-(3-methoxy-phenyl)-ethyl]-amide]"
5,1.25,"CCc1cc(-c2cncc(C(=O)NCCN3CCOCC3)c2)c(C)[nH]c1=O [Example 241, 5′-Ethyl-2′-methyl-6′-oxo-1′,6′-dihydro-[3,3′]bipyridinyl-5-carboxylic acid (2-morpholin-4-yl-ethyl)-amide]"
6,1.79,"CCc1cc(-c2cncc(C(=O)NCCC3CCOCC3)c2)c(C)[nH]c1=O [Example 242, 5′-Ethyl-2′-methyl-6′-oxo-1′,6′-dihydro-[3,3′]bipyridinyl-5-carboxylic acid [2-(tetrahydro-pyran-4-yl)-ethyl]-amide]"
7,2.29,"CCc1cc(-c2cncc(C(=O)NCCc3ccc(C(=O)O)cc3)c2)c(C)[nH]c1=O [Example 243, 4-{2-[(5′-Ethyl-2′-methyl-6′-oxo-1′,6′-dihydro-[3,3′]bipyridinyl-5-carbonyl)-amino]-ethyl}-benzoic acid]"
8,0.32,"CCc1cc(-c2cncc(C(=O)NCC(=O)c3ccccc3)c2)c(C)[nH]c1=O [Example 244, 5′-Ethyl-2′-methyl-6′-oxo-1′,6′-dihydro-[3,3′]bipyridinyl-5-carboxylic acid (2-oxo-2-phenyl-ethyl)-amide]"
9,1.9,"CCc1cc(-c2cncc(C(=O)NCCc3nc4ccccc4[nH]3)c2)c(C)[nH]c1=O [Example 245, 5′-Ethyl-2′-methyl-6′-oxo-1′,6′-dihydro-[3,3′]bipyridinyl-5-carboxylic acid [2-(1H-benzoimidazol-2-yl)-ethyl]-amide]"
10,0.64,"CCc1cc(-c2cncc(C(=O)Nc3ccc(C(C)=O)cc3)c2)c(C)[nH]c1=O [Example 246, 5′-Ethyl-2′-methyl-6′-oxo-1′,6′-dihydro-[3,3′]bipyridinyl-5-carboxylic acid (4-acetyl-phenyl)-amide]"
11,0.85,"CCc1cc(-c2cncc(C(=O)Nc3cccc(OC)c3)c2)c(C)[nH]c1=O [Example 248, 5′-Ethyl-2′-methyl-6′-oxo-1′,6′-dihydro-[3,3′]bipyridinyl-5-carboxylic acid (3-methoxy-phenyl)-amide]"
12,5,"CCc1cc(-c2cncc(C(=O)NCCn3c([N+](=O)[O-])cnc3C)c2)c(C)[nH]c1=O [Example 249, 5′-Ethyl-2′-methyl-6′-oxo-1′,6′-dihydro-[3,3′]bipyridinyl-5-carboxylic acid [2-(2-methyl-5-nitro-imidazol-1-yl)-ethyl]-amide]"
13,0.64,"CCc1cc(-c2cncc(C(=O)NCc3nccs3)c2)c(C)[nH]c1=O [Example 250, 5′-Ethyl-2′-methyl-6′-oxo-1′,6′-dihydro-[3,3′]bipyridinyl-5-carboxylic acid (thiazol-2-ylmethyl)-amide]"
14,0.1,"CCc1cc(-c2cncc(C(=O)Nc3ccccc3CC(N)=O)c2)c(C)[nH]c1=O [Example 251, 5′-Ethyl-2′-methyl-6′-oxo-1′,6′-dihydro-[3,3′]bipyridinyl-5-carboxylic acid (2-carbamoylmethyl-phenyl)-amide]"
15,6.1,"CCc1cc(-c2cncc(C(=O)N3CCN(C(=O)C4CC4)CC3)c2)c(C)[nH]c1=O [Example 252, 5′-(4-Cyclopropanecarbonyl-piperazine-1-carbonyl)-5-ethyl-2-methyl-1H-[3,3′]bipyridinyl-6-one]"
16,0.49,"CCc1cc(-c2cncc(C(=O)NCC(O)c3ccccc3)c2)c(C)[nH]c1=O (centres unmarked) [Example 253, 5′-Ethyl-2′-methyl-6′-oxo-1′,6′-dihydro-[3,3′]bipyridinyl-5-carboxylic acid (2-hydroxy-2-phenyl-ethyl)-amide]"
17,11.7,"CCc1cc(-c2cncc(C(=O)NCCN3C(=O)CSC3=O)c2)c(C)[nH]c1=O [Example 254, 5′-Ethyl-2′-methyl-6′-oxo-1′,6′-dihydro-[3,3′]bipyridinyl-5-carboxylic acid [2-(2,4-dioxo-thiazolidin-3-yl)-ethyl]-amide]"
18,0.28,"CCc1cc(-c2cncc(C(=O)NCc3ccc(S(N)(=O)=O)cc3)c2)c(C)[nH]c1=O [Example 255, 5′-Ethyl-2′-methyl-6′-oxo-1′,6′-dihydro-[3,3′]bipyridinyl-5-carboxylic acid 4-sulfamoyl-benzylamide]"

row,IC50 [µM],SMILES
1,0.45,"CCc1cc(-c2cncc(C(=O)NCC(=O)c3ccc(OC)cc3)c2)c(C)[nH]c1=O [Example 256, 5′-Ethyl-2′-methyl-6′-oxo-1′,6′-dihydro-[3,3′]bipyridinyl-5-carboxylic acid [2-(4-methoxy-phenyl)-2-oxo-ethyl]-amide]"
2,0.57,"CCc1cc(-c2cncc(C(=O)NCC3CC(c4ccncc4)=NO3)c2)c(C)[nH]c1=O (centres unmarked) [Example 257, 5′-Ethyl-2′-methyl-6′-oxo-1′,6′-dihydro-[3,3′]bipyridinyl-5-carboxylic acid (3-pyridin-4-yl-4,5-dihydro-isoxazol-5-ylmethyl)-amide]"
3,0.62,"CCc1cc(-c2cncc(C(=O)Nc3cc(C(C)(C)C)[nH]n3)c2)c(C)[nH]c1=O [Example 258, 5′-Ethyl-2′-methyl-6′-oxo-1′,6′-dihydro-[3,3′]bipyridinyl-5-carboxylic acid (5-tert-butyl-1H-pyrazol-3-yl)-amide]"
4,0.73,"CCc1cc(-c2cncc(C(=O)Nc3cc(C(C)(C)C)on3)c2)c(C)[nH]c1=O [Example 259, 5′-Ethyl-2′-methyl-6′-oxo-1′,6′-dihydro-[3,3′]bipyridinyl-5-carboxylic acid (5-tert-butyl-isoxazol-3-yl)-amide]"
5,0.8,"CCc1cc(-c2cncc(C(=O)N[C@H]3CC=CC[C@H]3C(N)=O)c2)c(C)[nH]c1=O [Example 260, 5′-Ethyl-2′-methyl-6′-oxo-1′,6′-dihydro-[3,3′]bipyridinyl-5-carboxylic acid ((1S,6R)-6-carbamoyl-cyclohex-3-enyl)-amide]"
6,2.07,"CCc1cc(-c2cncc(C(=O)NCCOC)c2)c(C)[nH]c1=O [Example 261, 5′-Ethyl-2′-methyl-6′-oxo-1′,6′-dihydro-[3,3′]bipyridinyl-5-carboxylic acid (2-methoxy-ethyl)-amide]"
7,2.22,"CCc1cc(-c2cncc(C(=O)NCC3CCC(C#N)CC3)c2)c(C)[nH]c1=O (centres unmarked) [Example 262, 5′-Ethyl-2′-methyl-6′-oxo-1′,6′-dihydro-[3,3′]bipyridinyl-5-carboxylic acid (4-cyano-cyclohexylmethyl)-amide]"
8,2.67,"CCc1cc(-c2cncc(C(=O)NCc3cccc(OC)c3)c2)c(C)[nH]c1=O [Example 263, 5′-Ethyl-2′-methyl-6′-oxo-1′,6′-dihydro-[3,3′]bipyridinyl-5-carboxylic acid 3-methoxy-benzylamide]"
9,3.14,"CCc1cc(-c2cncc(C(=O)NCCc3ccccn3)c2)c(C)[nH]c1=O [Example 264, 5′-Ethyl-2′-methyl-6′-oxo-1′,6′-dihydro-[3,3′]bipyridinyl-5-carboxylic acid (2-pyridin-2-yl-ethyl)-amide]"
10,4.1,"CCc1cc(-c2cncc(C(=O)NCc3ccc(O)c(OC)c3)c2)c(C)[nH]c1=O [Example 265, 5′-Ethyl-2′-methyl-6′-oxo-1′,6′-dihydro-[3,3′]bipyridinyl-5-carboxylic acid 4-hydroxy-3-methoxy-benzylamide]"
11,1.8,"CCc1cc(-c2ccc(C(C)O)o2)c(C)[nH]c1=O (centres unmarked) [Example 268, 3-Ethyl-5-[5-(1-hydroxy-ethyl)-furan-2-yl]-6-methyl-1H-pyridin-2-one]"
12,1.97,"CCc1cc(-c2ccc(CNC(=O)C3CCCC3)o2)c(C)[nH]c1=O [Example 269, Cyclopentanecarboxylic acid [5-(5-ethyl-2-methyl-6-oxo-1,6-dihydro-pyridin-3-yl)-furan-2-ylmethyl]-amide]"
13,1.18,"CCc1cc(-c2ccc(CNC(=O)Cc3ccccc3)o2)c(C)[nH]c1=O [Example 270, N-[5-(5-Ethyl-2-methyl-6-oxo-1,6-dihydro-pyridin-3-yl)-furan-2-ylmethyl]-2-phenyl-acetamide]"
14,0.5,"CCc1cc(-c2ccc(CNC(=O)c3ccccc3)o2)c(C)[nH]c1=O [Example 271, N-[5-(5-Ethyl-2-methyl-6-oxo-1,6-dihydro-pyridin-3-yl)-furan-2-ylmethyl]-benzamide]"
15,0.44,"CCc1cc(-c2ccc(CNC(=O)c3ccc(OC)cc3)o2)c(C)[nH]c1=O [Example 272, N-[5-(5-Ethyl-2-methyl-6-oxo-1,6-dihydro-pyridin-3-yl)-furan-2-ylmethyl]-4-methoxy-benzamide]"
16,1.4,"CCc1cc(-c2ccc(CNC(=O)c3ccccn3)o2)c(C)[nH]c1=O [Example 273, Pyridine-2-carboxylic acid [5-(5-ethyl-2-methyl-6-oxo-1,6-dihydro-pyridin-3-yl)-furan-2-ylmethyl]-amide]"
17,0.83,"CCc1cc(-c2ccc(CNC(C)=O)o2)c(C)[nH]c1=O [Example 274, N-[5-(5-Ethyl-2-methyl-6-oxo-1,6-dihydro-pyridin-3-yl)-furan-2-ylmethyl]-acetamide]"
